Our source for the IC50 values is patent publication US9296723B2, “NAMPT inhibitors” (AbbVie Inc., priority 2012, dated 2016).

One test has as its target NAMPT (Homo sapiens, UniProt P43490). Put plainly: Time-Resolved Fluorescence Resonance Energy Transfer (TR-FRET) Binding Assay of NAMPT. Particulars: 6.8 nM NAMPT, 200 nM probe, equilibrated 3 hours, no substrates. On the procedure:
Determination of the utility of compounds having Formula (I) as binders to and inhibitors of NAMPT was performed using Time-Resolved Fluorescence Resonance Energy Transfer (TR-FRET) binding assays.
Time-Resolved Fluorescence Resonance Energy Transfer (TR-FRET) Binding Assay of NAMPT
Six L were transferred to 384-well low-volume plates ([…] #3673). To this, 12 L of a 1.5× solution containing enzyme, probe and antibody were added. […] Reactions were equilibrated at room temperature for 3 hours prior to reading on an Envision multi-label plate reader (Perkin Elmer; Ex=337 nm, Em=520 and 495 nm). Time-resolved FRET ratios (Em520/Em495) were normalized to controls, plotted as a function of compound concentration and fit with the four-parameter logistic equation to determine IC50s.

The test system of another test is PC3 cells. Put plainly: NAMPT Cell Proliferation Assay (Cell Titer Glo). It is filed as cell-based. Conditions: Homo sapiens, PC-3, 120 h, incubated 5 days, cell viability. On the procedure:
NAMPT Cell Proliferation Assay
PC3 cells were seeded in 96-well black plates (Corning #3904) at 500 cells/well in 90 µl of RPMI media containing 10% heat-inactivated FBS and incubated overnight at 37° C. and 5% CO2 to allow cells to attach to wells. The following day, test compounds were serially diluted in neat DMSO to 1000× final concentrations prior to dilution with RPMI media to 10× and 1% DMSO. Ten L of the 10× compounds were then transferred to wells containing cells to produce a dose response of 10-fold dilutions from […]. Cells were incubated for 5 days at 37° C. and 5% CO2, then cell viability was measured using Cell Titer Glo reagent (Promega #G7571). Percent inhibition values were calculated and fitted to a sigmoidal dose response curves using Assay Explorer software to determine IC50s.

NAMPT, sequence (P43490 whole entry): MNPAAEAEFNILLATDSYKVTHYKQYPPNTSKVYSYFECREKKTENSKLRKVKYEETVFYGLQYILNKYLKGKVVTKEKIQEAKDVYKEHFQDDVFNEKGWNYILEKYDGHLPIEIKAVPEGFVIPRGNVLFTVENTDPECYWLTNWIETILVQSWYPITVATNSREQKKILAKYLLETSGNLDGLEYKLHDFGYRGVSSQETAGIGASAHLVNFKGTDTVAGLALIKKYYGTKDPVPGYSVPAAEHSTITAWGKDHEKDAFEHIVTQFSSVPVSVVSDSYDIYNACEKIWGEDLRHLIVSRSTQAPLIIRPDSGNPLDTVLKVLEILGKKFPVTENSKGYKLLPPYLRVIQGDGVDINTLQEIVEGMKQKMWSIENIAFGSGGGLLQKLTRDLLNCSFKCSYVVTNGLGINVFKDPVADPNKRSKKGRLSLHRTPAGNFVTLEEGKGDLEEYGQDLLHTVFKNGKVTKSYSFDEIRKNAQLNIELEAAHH

With `O=C(Nc1ccc(O[C@@H]2CCN(C(=O)C3CCOC3)C2)cc1)N1CC(c2cccnc2)C1` (stereo partly drawn) [Example 80, 3-(pyridin-3-yl)-N-(4-{[(3R)-1-(tetrahydrofuran-3-ylcarbonyl)pyrrolidin-3-yl]oxy}phenyl)azetidine-1-carboxamide], the values for the IC50 on NAMPT and in the test with PC3 cells were 122 nM and 63.2 nM, respectively.

On to `O=C(CC1CC1)N1CC[C@@H](Oc2ccc(NC(=O)N3CC(c4cccnc4)C3)cc2)C1` [Example 81, N-(4-{[(3R)-1-(cyclopropylacetyl)pyrrolidin-3-yl]oxy}phenyl)-3-(pyridin-3-yl)azetidine-1-carboxamide], for which the IC50 at NAMPT is 30.9 nM; in the test on PC3 cells, 17.8 nM.

As to `CC(C)(O)C(=O)N1CC[C@@H](Oc2ccc(NC(=O)N3CC(c4cccnc4)C3)cc2)C1` [Example 82, N-(4-{[(3R)-1-(2-hydroxy-2-methylpropanoyl)pyrrolidin-3-yl]oxy}phenyl)-3-(pyridin-3-yl)azetidine-1-carboxamide], the values for the IC50 on NAMPT and in the test with PC3 cells were 9.73 nM and 7.24 nM, respectively.

As for `O=C(Nc1ccc(O[C@@H]2CCN(C(=O)c3ccccc3)C2)cc1)N1CC(c2cccnc2)C1` [Example 83, N-(4-{[(3R)-1-benzoylpyrrolidin-3-yl]oxy}phenyl)-3-(pyridin-3-yl)azetidine-1-carboxamide], the IC50 is 7.22 nM on NAMPT and 6.85 nM in the test with PC3 cells.

Consider `O=C(CC(F)(F)F)N1CC[C@@H](Oc2ccc(NC(=O)N3CC(c4cccnc4)C3)cc2)C1` [Example 84, 3-(pyridin-3-yl)-N-(4-{[(3R)-1-(3,3,3-trifluoropropanoyl)pyrrolidin-3-yl]oxy}phenyl)azetidine-1-carboxamide], for which the IC50 on NAMPT was found to be 59.4 nM; in the test with PC3 cells, 22 nM.

With `CCCC(=O)N1CC[C@@H](Oc2ccc(NC(=O)N3CC(c4cccnc4)C3)cc2)C1` [Example 87, N-(4-{[(3R)-1-butanoylpyrrolidin-3-yl]oxy}phenyl)-3-(pyridin-3-yl)azetidine-1-carboxamide], the IC50 on NAMPT was found to be 19.8 nM; in the test with PC3 cells, 6.04 nM.

On to `CC(C)C(=O)N1CC[C@H](Oc2ccc(NC(=O)N3CC(c4cccnc4)C3)cc2)C1` [Example 89, N-(4-{[(3S)-1-(2-methylpropanoyl)pyrrolidin-3-yl]oxy}phenyl)-3-(pyridin-3-yl)azetidine-1-carboxamide], for which the IC50 on NAMPT was found to be 227 nM; with PC3 cells it was 180 nM.

Consider `O=C(Nc1ccc(O[C@H]2CCN(C(=O)[C@H]3CCCO3)C2)cc1)N1CC(c2cccnc2)C1` [Example 91, 3-(pyridin-3-yl)-N-[4-({(3S)-1-[(2R)-tetrahydrofuran-2-ylcarbonyl]pyrrolidin-3-yl}oxy)phenyl]azetidine-1-carboxamide], for which the IC50 at NAMPT was found to be 320 nM; with PC3 cells it was 111 nM.

For `O=C(Nc1ccc(O[C@H]2CCN(C(=O)C3CCOC3)C2)cc1)N1CC(c2cccnc2)C1` (stereo partly drawn) [Example 92, 3-(pyridin-3-yl)-N-(4-{[(3S)-1-(tetrahydrofuran-3-ylcarbonyl)pyrrolidin-3-yl]oxy}phenyl)azetidine-1-carboxamide], the IC50 on NAMPT was 387 nM; in the test on PC3 cells it was 608 nM.

`O=C(CC1CC1)N1CC[C@H](Oc2ccc(NC(=O)N3CC(c4cccnc4)C3)cc2)C1` [Example 93, N-(4-{[(3S)-1-(cyclopropylacetyl)pyrrolidin-3-yl]oxy}phenyl)-3-(pyridin-3-yl)azetidine-1-carboxamide]: the IC50 at NAMPT is 138 nM; with PC3 cells, 87.6 nM.

Take `O=C(Nc1ccc(O[C@H]2CCN(C(=O)c3ccccc3)C2)cc1)N1CC(c2cccnc2)C1` [Example 95, N-(4-{[(3S)-1-benzoylpyrrolidin-3-yl]oxy}phenyl)-3-(pyridin-3-yl)azetidine-1-carboxamide]: the IC50 came out at 79.1 nM at NAMPT and 66.2 nM in the test on PC3 cells.

On to `O=C(CC(F)(F)F)N1CC[C@H](Oc2ccc(NC(=O)N3CC(c4cccnc4)C3)cc2)C1` [Example 96, 3-(pyridin-3-yl)-N-(4-{[(3S)-1-(3,3,3-trifluoropropanoyl)pyrrolidin-3-yl]oxy}phenyl)azetidine-1-carboxamide], for which the IC50 amounted to 265 nM on NAMPT and 171 nM in the test on PC3 cells.

As to `O=C(Nc1ccc(O[C@H]2CCN(C(=O)C3CC3)C2)cc1)N1CC(c2cccnc2)C1` [Example 97, N-(4-{[(3S)-1-(cyclopropylcarbonyl)pyrrolidin-3-yl]oxy}phenyl)-3-(pyridin-3-yl)azetidine-1-carboxamide], the IC50 is 168 nM at NAMPT and 76.7 nM in the test on PC3 cells.

As to `O=C(Nc1ccc(OC2CN(C(=O)c3ccco3)C2)cc1)N1CC(c2cccnc2)C1` [Example 115, N-(4-{[1-(furan-2-ylcarbonyl)azetidin-3-yl]oxy}phenyl)-3-(pyridin-3-yl)azetidine-1-carboxamide], the IC50 at NAMPT turned out to be 9.22 nM; in the test with PC3 cells, 6.11 nM.

For `CC(C)C(C)C(=O)N1CC(Oc2ccc(NC(=O)N3CC(c4cccnc4)C3)cc2)C1` (stereo not drawn) [Example 123, N-(4-{[1-(2,3-dimethylbutanoyl)azetidin-3-yl]oxy}phenyl)-3-(pyridin-3-yl)azetidine-1-carboxamide], the results for the IC50 at NAMPT and in the test with PC3 cells were 14.7 nM and 8.81 nM, respectively.

As for `O=C(Nc1ccc(OC2CN(C(=O)c3cscn3)C2)cc1)N1CC(c2cccnc2)C1` [Example 147, 3-(pyridin-3-yl)-N-(4-{[1-(1,3-thiazol-4-ylcarbonyl)azetidin-3-yl]oxy}phenyl)azetidine-1-carboxamide], the results for the IC50 on NAMPT and with PC3 cells were 16.7 nM and 5.13 nM, respectively.

Consider `O=C(Nc1ccc(OC2CN(C(=O)c3ccoc3)C2)cc1)N1CC(c2cccnc2)C1` [Example 151, N-(4-{[1-(furan-3-ylcarbonyl)azetidin-3-yl]oxy}phenyl)-3-(pyridin-3-yl)azetidine-1-carboxamide], for which the figures for the IC50 on NAMPT and in the test with PC3 cells were 20.8 nM and 15.4 nM, respectively.

As for `O=C(Nc1ccc(OC2CN(C(=O)c3nccs3)C2)cc1)N1CC(c2cccnc2)C1` [Example 154, 3-(pyridin-3-yl)-N-(4-{[1-(1,3-thiazol-2-ylcarbonyl)azetidin-3-yl]oxy}phenyl)azetidine-1-carboxamide], the half-maximal inhibitory concentration (IC50) at NAMPT is 24 nM; in the test on PC3 cells it was 7.89 nM.

With `CC(C)Cn1cc(-c2ccc(NC(=O)N3CC(c4cccnc4)C3)cc2)cn1` [Example 157, N-{4-[1-(2-methylpropyl)-1H-pyrazol-4-yl]phenyl}-3-(pyridin-3-yl)azetidine-1-carboxamide], the IC50 came out at 22.6 nM at NAMPT and 37.8 nM in the test on PC3 cells.

For the molecule `CCCn1cc(-c2ccc(NC(=O)N3CC(c4cccnc4)C3)cc2)cn1` [Example 158, N-[4-(1-propyl-1H-pyrazol-4-yl)phenyl]-3-(pyridin-3-yl)azetidine-1-carboxamide], the IC50 on NAMPT came to 26.3 nM; with PC3 cells, 36.5 nM.

In the case of `O=C(Nc1ccc(C2CN(CC3CCCC3)C2)cc1)N1CC(c2cccnc2)C1` [Example 245, N-{4-[1-(cyclopentylmethyl)azetidin-3-yl]phenyl}-3-(pyridin-3-yl)azetidine-1-carboxamide], the IC50 on NAMPT was 317 nM; with PC3 cells, 617 nM.

Consider `CCCC(C)CN1CC(c2ccc(NC(=O)N3CC(c4cccnc4)C3)cc2)C1` (stereo not drawn) [Example 249, N-{4-[1-(2-methylpentyl)azetidin-3-yl]phenyl}-3-(pyridin-3-yl)azetidine-1-carboxamide], for which the figures for the IC50 on NAMPT and in the test with PC3 cells were 193 nM and 541 nM, respectively.

Regarding `O=C(CN1CCCC1)N1CCC(c2ccc(NC(=O)N3CC(c4cccnc4)C3)cc2)C1` (stereo not drawn) [Example 265, 3-(pyridin-3-yl)-N-{4-[1-(pyrrolidin-1-ylacetyl)pyrrolidin-3-yl]phenyl}azetidine-1-carboxamide], the IC50 at NAMPT worked out at 191 nM; with PC3 cells, 691 nM.

With `CN(C)CCC(=O)N1CCC(c2ccc(NC(=O)N3CC(c4cccnc4)C3)cc2)C1` (stereo not drawn) [Example 266, N-{4-[1-(N,N-dimethyl-beta-alanyl)pyrrolidin-3-yl]phenyl}-3-(pyridin-3-yl)azetidine-1-carboxamide], the IC50 on NAMPT amounted to 96.2 nM; in the test on PC3 cells, 207 nM.

`CC1(C(=O)N2CCC(c3ccc(NC(=O)N4CC(c5cccnc5)C4)cc3)C2)CC1` (stereo not drawn) [Example 269, N-(4-{1-[(1-methylcyclopropyl)carbonyl]pyrrolidin-3-yl}phenyl)-3-(pyridin-3-yl)azetidine-1-carboxamide]: the IC50 worked out at 20.1 nM on NAMPT and 16.7 nM with PC3 cells.

On to `O=C1CC[C@@H](C(=O)N2CCC(c3ccc(NC(=O)N4CC(c5cccnc5)C4)cc3)C2)N1` (stereo partly drawn) [Example 273, N-{4-[1-(5-oxo-L-prolyl)pyrrolidin-3-yl]phenyl}-3-(pyridin-3-yl)azetidine-1-carboxamide], for which the IC50 at NAMPT worked out at 203 nM; in the test on PC3 cells it was 7270 nM.

As for `CC(=O)N1CCC(c2ccc(NC(=O)N3CC(c4cccnc4)C3)cc2)C1` (stereo not drawn) [Example 277, N-[4-(1-acetylpyrrolidin-3-yl)phenyl]-3-(pyridin-3-yl)azetidine-1-carboxamide], the IC50 came to 76.7 nM on NAMPT and 63.1 nM in the test with PC3 cells.
